How the values were obtained:
MOG-induced EAE mice = assay: Efficacy of laquinimod alone or in combination with fingolimod in MOG-induced EAE; format: in vivo, mice (C57BL/6); conditions: for activity according to GMS compared to vehicle control: oral QD; for Duration / Onset / Mortality / GMS value / Incidence: Day 1 to 30; for Mortality: dead or moribund/total mice; for GMS value: group mean clinical score (0-6); for Incidence: sick/total mice
S1PR5 = S1PR5 (Homo sapiens, UniProt Q9H228); conditions: cited from earlier work
Sequence of S1PR5 (Q9H228 whole entry, species assumed): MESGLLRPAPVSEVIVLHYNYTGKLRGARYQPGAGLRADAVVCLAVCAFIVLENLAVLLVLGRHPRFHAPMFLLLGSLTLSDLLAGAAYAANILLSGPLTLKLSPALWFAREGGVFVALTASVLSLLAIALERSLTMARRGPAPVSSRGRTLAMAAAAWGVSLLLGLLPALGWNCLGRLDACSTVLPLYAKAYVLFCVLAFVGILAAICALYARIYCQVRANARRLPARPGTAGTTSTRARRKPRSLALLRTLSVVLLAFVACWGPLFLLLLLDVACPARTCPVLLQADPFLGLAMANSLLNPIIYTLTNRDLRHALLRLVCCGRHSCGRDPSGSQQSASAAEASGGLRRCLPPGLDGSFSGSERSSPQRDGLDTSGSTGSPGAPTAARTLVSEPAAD

S1PR4 = target: T1, S1PR4 (Homo sapiens, UniProt O95977); conditions: cited from earlier work
T1 sequence (O95977 1-384): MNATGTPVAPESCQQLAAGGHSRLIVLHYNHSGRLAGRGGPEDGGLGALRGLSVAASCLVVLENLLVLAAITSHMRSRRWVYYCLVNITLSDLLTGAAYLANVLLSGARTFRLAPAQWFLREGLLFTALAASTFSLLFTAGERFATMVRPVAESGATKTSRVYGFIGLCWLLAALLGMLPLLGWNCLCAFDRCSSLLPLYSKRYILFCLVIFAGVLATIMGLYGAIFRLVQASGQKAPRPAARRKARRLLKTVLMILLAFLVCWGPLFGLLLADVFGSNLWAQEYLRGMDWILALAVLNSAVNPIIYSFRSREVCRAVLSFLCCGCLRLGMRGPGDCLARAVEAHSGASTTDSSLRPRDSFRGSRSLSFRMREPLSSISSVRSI

## CCN(C(=O)c1c(O)c2c(Cl)cccc2n(C)c1=O)c1ccccc1 [Laquinimod]
MOG-induced EAE mice; laquinimod 10 mg/kg (sub optimal dose)
  activity according to GMS compared to vehicle control: 53.1%
MOG-induced EAE mice; laquinimod 10 mg/kg alone
  effectiveness against EAE (in words): moderately effective
MOG-induced EAE mice; laquinimod 10 mg/kg oral QD
  Duration: 14.1 ± 6.4 days
  Onset: 17.1 ± 6.3 days
  Mortality: 0/15
  GMS value: 1.5 ± 0.8
  Incidence: 13/15
MOG-induced EAE mice; laquinimod 25 mg/kg (optimal dose)
  activity according to GMS compared to vehicle control: 81.1%
MOG-induced EAE mice; laquinimod 25 mg/kg oral QD
  Duration: 8.1 ± 9.0 days
  Onset: 22.9 ± 9.0 days
  Mortality: 0/15
  GMS value: 0.6 ± 0.8
  Incidence: 7/15

## CCCCCCCCc1ccc(CCC(N)(CO)COP(=O)(O)O)cc1 (stereo not shown) [Fingolimod-phosphate]
S1PR5
  binding affinity (in words): high affinity
S1PR4
  binding affinity (in words): high affinity

## CCCCCCCCc1ccc(CCC(N)(CO)CO)cc1 [Fingolimod, 2-amino-2-[2-(4-octylphenyl)ethyl]propane-1,3-diol]
MOG-induced EAE mice; fingolimod 0.3 mg/kg (sub optimal dose)
  activity according to GMS compared to vehicle control: 56.3%
MOG-induced EAE mice; fingolimod 0.3 mg/kg alone
  effectiveness against EAE (in words): moderately effective
MOG-induced EAE mice; fingolimod 0.3 mg/kg oral QD
  Duration: 15.0 ± 6.7 days
  Onset: 16.0 ± 6.7 days
  Mortality: 0/15
  GMS value: 1.4 ± 0.8
  Incidence: 13/15
MOG-induced EAE mice; fingolimod 1 mg/kg (optimal dose)
  activity according to GMS compared to vehicle control: 81.3%
MOG-induced EAE mice; fingolimod 1 mg/kg oral QD
  Duration: 7.59 ± 9.1 days
  Onset: 21.7 ± 9.3 days
  Mortality: 0/15
  GMS value: 0.6 ± 0.8
  Incidence: 8/15
